Results as given in patent US20260191853A1, “METHOD OF TREATING DRUG-INDUCED BRADYARRHYTHMIA” (OSAKA UNIVERSITY, priority 2022, published 2026).
Entries after “also recorded” stand apart in the source; their conditions may differ.

Legend:
[1] = tested on: genetically modified animal model; experiment: Sinus arrest and atrioventricular block in a genetically modified animal model; assay type: in vivo
[2] = molecular target: T1, KACh channel (Homo sapiens, UniProt P48544+P48549); experiment: KACh channel inhibitory action
T1 sequence (P48549 1-501): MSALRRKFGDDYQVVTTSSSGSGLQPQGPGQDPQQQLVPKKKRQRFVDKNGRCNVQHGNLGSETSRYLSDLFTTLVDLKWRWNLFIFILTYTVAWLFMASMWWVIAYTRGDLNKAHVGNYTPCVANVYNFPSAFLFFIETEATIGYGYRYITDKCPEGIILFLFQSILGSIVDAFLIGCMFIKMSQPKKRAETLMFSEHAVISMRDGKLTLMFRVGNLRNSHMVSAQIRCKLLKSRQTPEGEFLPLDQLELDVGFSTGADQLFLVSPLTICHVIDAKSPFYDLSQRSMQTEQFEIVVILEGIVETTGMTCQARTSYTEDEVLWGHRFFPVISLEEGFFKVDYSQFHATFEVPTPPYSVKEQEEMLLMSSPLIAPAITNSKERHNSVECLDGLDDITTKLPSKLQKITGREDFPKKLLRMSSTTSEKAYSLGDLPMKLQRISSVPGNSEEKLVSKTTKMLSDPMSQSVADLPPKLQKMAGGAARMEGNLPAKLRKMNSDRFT
T1 sequence (P48544 1-419): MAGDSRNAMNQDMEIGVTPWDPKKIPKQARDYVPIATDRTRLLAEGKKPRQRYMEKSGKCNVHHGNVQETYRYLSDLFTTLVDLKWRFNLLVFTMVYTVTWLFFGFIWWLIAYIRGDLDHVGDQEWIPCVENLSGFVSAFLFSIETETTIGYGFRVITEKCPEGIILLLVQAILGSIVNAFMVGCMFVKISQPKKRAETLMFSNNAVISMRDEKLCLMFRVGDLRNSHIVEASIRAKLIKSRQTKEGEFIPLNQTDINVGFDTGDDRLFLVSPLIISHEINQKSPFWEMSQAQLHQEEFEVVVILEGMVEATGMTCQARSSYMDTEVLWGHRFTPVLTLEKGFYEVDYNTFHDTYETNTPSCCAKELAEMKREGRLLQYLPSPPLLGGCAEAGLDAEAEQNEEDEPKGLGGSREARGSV

[3] = tested on: beagle dog; experiment: Therapeutic effect on verapamil-induced bradycardia in conscious beagle dog; assay type: in vivo; settings: FIG. 10
Method: A peripheral venous path was secured with an 18 G needle in the right forelimb of a beagle dog (body weight: about 10 kg, female, available from Oriental Yeast Co., Ltd.), and then held on an operating table. Heart rate was monitored with an electrocardiographic monitor worn on the animal. A manchette was worn on the left forelimb, and blood pressure was measured with an Omron automatic electronic sphygmomanometer. The left ventricular function was measured by the M-mode method using the echocardiographic left parasternal short-axis two-chamber view. After stabilization of the heart rate, verapamil (intravenous injection of Vasolan, available from Eisai Co., Ltd.) was administered by continuous intravenous injection at a dose of 0.8 mg/kg/hour with a syringe pump. About 30 minutes after the initiation of administration, the dose was increased to 2.4 mg/kg/hour, and continuous infusion was continued. Since 2:1 atrioventricular block was continuously determined 17 minutes after an increase in the dose, the administration of verapamil was discontinued. Subsequently, saline and compound (I) dihydrochloride (0.01 mg/kg, 0.1 mg/kg, 1 mg/kg) were administered by bolus intravenous injection at 10-minute intervals. About 10 minutes after each administration, electrocardiogram, heart rate, blood pressure, and left ventricular function were measured and evaluated in a stable state. […]

[4] = tested on: Hartley guinea pigs; experiment: Effect on fingolimod-induced decrease in blood lymphocytes in guinea pig; assay type: in vivo; settings: compound (I) 10 or 30 mg/kg oral gavage 30 min before fingolimod hydrochloride 0.1 mg/kg oral; 5 and 24 hours; FIG. 7
Method: Hartley guinea pigs (8 weeks old, male, available from Japan SLC, Inc.) were fasted for about 16 hours, and then a solvent or compound (I) (free form) was administered by oral gavage to each animal at a dose of 10 or 30 mg/kg (volume: 5 mL/kg). The solvent used was 0.5 w/v % methyl cellulose 400 solution (available from FUJIFILM Wako Pure Chemical Corporation). Thirty minutes after the administration, a solvent or fingolimod hydrochloride was administered by oral gavage to the animal at a dose of 0.1 mg/kg (volume: 5 mL/kg). The solvent used was saline (available from Otsuka Pharmaceutical Factory, Inc.). Blood was collected from the jugular vein, the subclavian vein, or the abdominal vena cava before administration of compound (I) and 5 and 24 hours after administration of fingolimod hydrochloride. Blood cell components were analyzed with a multi-item automatic blood cell counter (XN-1000, available from Sysmex Corporation). The plasma was collected by centrifuging the blood and cryopreserved at about −20° C. After thawing of the plasma, plasma drug concentrations were measured using LC/MS/MS after deproteinization with acetonitrile.
In FIG. 7, the measurements are shown as mean±standard error, and (I) denotes compound (I).

## Cc1cc(CO)nc2cc3c(cc12)OC(C)(C)[C@H](O)[C@H]3NCCc1ccccc1 [Compound (I), (3R,4S)-7-Hydroxymethyl-2,2,9-trimethyl-4-(phenethylamino)-3,4-dihydro-2H-pyrano[2,3-g]quinoline-3-ol]
[1]
  efficacy for sinus arrest and atrioventricular block: effective
[2]
  KACh channel inhibitory action: has a KACh channel inhibitory action
[3]; 0.1 mg/kg bolus i.v.
  verapamil-induced bradyarrhythmia (2:1 atrioventricular block): exhibited a termination effect
[3]; compound (I) dihydrochloride 0.01, 0.1, 1 mg/kg bolus i.v. after verapamil infusion up to 2.4 mg/kg/hour
  verapamil-induced bradyarrhythmia (2:1 atrioventricular block): improved bradyarrhythmia; also recorded: recovery to 1:1 atrioventricular conduction
[4]
  effect on the peripheral blood lymphocyte decreasing action of fingolimod: does not inhibit
